This is an account of results in patent publication US8853353B2, “Membrane type-1 matrix metalloprotein inhibitors and uses thereof” (Angiochem, Inc., priority 2008, dated 2014).

Test [1] relates to medulloblastoma cells (DAOY). The conditions noted are these: 3D collagen gel. The protocol: (§1) Different tumor cell lines were incubated with the peptides and grown atop of a collagen film (2D) or within a collagen gel (3D).
For test [2], the system named is glioblastoma cells (U-87). The note with it: 3D collagen gel. The protocol:
as §1

The test system of test [3] is GST-MT1-MMP cytoplasmic tail fusion protein (GST-MT). The conditions noted are these: recombinant Src kinase, ATP, western blot. How it is done:
The GST-MT1-MMP cytoplasmic tail fusion protein (GST-MT) was incubated with recombinant Src kinase in the presence of ATP and the phosphorylation products were analyzed by western blotting.

For test [4], the system named is osteosarcoma cells (MG-63). The note with it: bone cancer cells, 3D collagen gel. How it is done: as §1
The subject of test [5] is prostate adinocarcinoma cells (PC-3). The conditions noted are these: prostate cancer cells, 3D collagen gel. The protocol:
as §1

Test [6] relates to breast adenocarcinoma cells (MDA-MB-231). The conditions noted are these: breast cancer cells, 3D collagen gel. The protocol:
as §1

The next test has as its system tumor cell lines. The conditions noted are these: grown atop of a collagen film (2D). The protocol:
as §1

The subject of test [7] is fibrosarcoma cells (HT-1080). The conditions noted are these: 3D collagen gel. How it is done: as §1
The subject of test [8] is Fibrosarcoma cells implanted subcutaneously. The note with it: 10 mg/kg daily subcutaneous. The protocol: Fibrosarcoma cells were implanted subcutaneously into the flank of athymic nude mice. […] Mice were given daily subcutaneous administrations of 10 mg/kg of peptides or vehicle.

For the substance “Biotin-Ahx-RQIKIWFQNRRMKWKK-TLRQRRCLPHFDSGLRKVRL [scACM-14, reference compound]”, the “reduction of proliferation in 3D matrix” value in [1] and in [2] was “no effect” throughout. Moreover, the “inhibition of Src-mediated tyrosine phosphorylation of GST-MT” value in test [3] was “not observed”.

Consider “Biotin-Ahx-RQIKIWFQNRRMKWKK-RRHGTPRRLLFCQRSLLDKV [ACM-14]”, for which the “inhibition of 3D proliferation” value in test [4], in test [5], in test [6] and in test [7] was “inhibits” each time. The “reduction of proliferation in 3D matrix” value came out at 35% in [1] and 50% in test [2]. In addition, the “effect on tumor cell proliferation in 2D conditions” value with tumor cell lines is given as “does not affect”. The “tumors completely regressed and totally disappeared” value in [8] is listed as 17%. Further, the “reduction of tumor growth” value in test [8] (26 days post-implantation) is 70%. In test [3], the “inhibition of Src-mediated tyrosine phosphorylation of GST-MT” value was “completely inhibited”.
